Measured values: PubChem BioAssay AID743183 (Broad Institute, 2013)
Results filed as inconclusive are left out. The source made the active and inactive calls. No rule for the calls is given here.

Tested on: not listed separately
Assay: inhibitors of non-replicating M. tuberculosis, dose response, luciferase, dry powder (AID 743183)
Details: non-replicating M. tuberculosis, luciferase reporter luminescence; at 38 µM (top of the series)
For `N#Cc1nc(-c2cccs2)oc1NCCc1ccccc1`, the activity change, negative = inhibition was -87.4% (inactive). In the case of `Cc1ccc(C)c(-c2csc(NC(=O)c3cnccn3)n2)c1`, the activity change, negative = inhibition is reported as -66.6% (inactive). With `CCOC(=O)CNC(=O)N1c2ccccc2Sc2ccccc21` the activity change, negative = inhibition was -75.4% (inactive). In the case of `O=C(OCc1ccc(Cl)c(Cl)c1)c1ccccn1`, the activity change, negative = inhibition is reported as -46.6% (inactive).

Tested on: non-replicating M. tuberculosis, luciferase reporter luminescence
Assay: as above
Details: not given
In the case of `CCc1ccc(OCCCC(=O)NCc2ccco2)cc1`, the AC90 is reported as 31.8 µM. Compound `CCOC(=O)COc1ccc(C(=O)NC2CCCCC2)cc1` has an AC90 of 8.93 µM. Work on `Cc1cccc(C)c1N1C(=O)CC(N2CCSCC2)C1=O` (configuration not stated) yielded an AC90 of 4.7 µM. For `COC(=O)COc1ccc2c(=O)c(Oc3ccccc3)c(C)oc2c1`, the AC90 was 2.94 µM. Work on `O=C(COc1cccc2ccccc12)Nc1nc2ccccc2[nH]1` yielded an AC90 of 6.61 µM. `CCCOC(=O)c1ccc(NC(=O)c2ccc(Br)o2)cc1` gave an AC90 of 7.14 µM. Work on `C=CCn1c(NC(=O)c2ccccc2)nc2ccccc21` yielded an AC90 of 7.69 µM. With `NC1CCN(c2c(F)cc3c(=O)c(C(=O)O)cn(C4CC4)c3c2Cl)C1` (configuration not stated) the AC90 was 2.04 µM. Compound `Cc1cc(C)n2nc(S(=O)(=O)Nc3c(Cl)cccc3Cl)nc2n1` has an AC90 of 5.45 µM. `O=C(COc1c(Br)cc(Br)c2cccnc12)N1CCCCC1` showed an AC90 of 7.78 µM. Compound `CCOC(=O)COc1ccc2c(=O)cc(-c3ccccc3)oc2c1` has an AC90 of 2.9 µM. `Cc1nnc(NC(=O)c2ccc3ccccc3c2)o1` gave an AC90 of 0.372 µM. For `CS(=O)(=O)Cc1nc2ccccc2oc1=O`, the AC90 was 38.6 µM. `NC(=O)C1(N2CCCCC2)CCN(C2CC(=O)N(CCc3ccccc3)C2=O)CC1` (configuration not stated) showed an AC90 of 22.3 µM. With `CCOC(=O)c1cc(-c2csc(COc3ccccc3Cl)n2)on1` the AC90 was 4.52 µM. Compound `O=C(Nc1nc2ccccc2[nH]1)c1cccc(Cl)c1` has an AC90 of 4.96 µM. For `Cc1cc(NC(=O)C2CCCCC2)n(-c2nc3ccccc3[nH]2)n1`, the AC90 was 12.9 µM. Work on `COC(=O)COc1cccc(NC(=O)c2ccc(Cl)cc2)c1` yielded an AC90 of 11.7 µM. For `Clc1cccc(-c2ccc(CNCc3ccccn3)o2)c1`, the AC90 was 16.3 µM. `CCOC(=O)c1cc(-c2csc(COc3ccccc3)n2)on1` showed an AC90 of 6.95 µM. `O=C(CCc1ccccc1)NC1C2CC3CC(C2)CC1C3` (configuration not stated) gave an AC90 of 10.3 µM. Work on `CCOCCOC(=O)COc1ccc2c(-c3ccccc3)cc(=O)oc2c1` yielded an AC90 of 8.82 µM. In the case of `Brc1c(-c2ccc3c(c2)OCO3)nc2ncccn12`, the AC90 is reported as 12.9 µM. For `CCCCN(C/C=C/c1ccccc1OC)Cc1ccccc1`, the AC90 was 24.6 µM. `Clc1cccc(CNCCNCc2cccc(Cl)c2)c1` showed an AC90 of 19.4 µM. Work on `Cc1cccc(Cn2ccc(NC(=O)c3ccc4c(c3)OCO4)n2)c1` yielded an AC90 of 9.73 µM. `c1ccc(Nc2nc(-c3ccccn3)cs2)cc1` showed an AC90 of 1.95 µM. Compound `CCOC(=O)COc1ccc2c(=O)c(-c3ccccc3)coc2c1` has an AC90 of 3.65 µM. Work on `O=C(NCc1cccs1)c1ccc(Br)o1` yielded an AC90 of 5.8 µM. For `O=C(CCN1CCC(c2cccs2)=N1)c1cccs1`, the AC90 was 14.3 µM. Compound `Fc1ccc(-c2ccc(CNCc3ccccn3)o2)cc1Cl` has an AC90 of 13.7 µM. `O=C(NC1CC2CCC1C2)C1COc2ccccc2O1` (configuration not stated) gave an AC90 of 1.39 µM. With `CCOC(=O)COc1ccc2c(c1)C(=O)CC1(CCCCC1)O2` the AC90 was 5.77 µM.
